The values that follow come from patent US7205382B2, “Peptides, the production and use thereof for binding immunoglobulins” (Fresenius Medical Care Affina GmbH, priority 2000, dated 2007).

Common to all, as to assay type: binding
What all share (set-up): key: No binding of immunoglobulin for the defined peptide variant, detection negative: 0; Binding of immunoglobulin for the defined peptide variant, detection positive: +

One test relates to human IgG-Fc. Briefly: Cellulose-immobilized 13-mer peptide variants incubated with human IgG-Fc, anti-human IgG-AP detection. Conditions: IgG-Fc 1 μg/ml in blocking buffer, 3 h room temperature. Summed up:
(§1)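 Binding is scored by NBT/BCIP precipitate from an AP-conjugated anti-human IgG probe on membrane-synthesized peptides. Targets are applied for 3 h at room temperature in 4% BSA/5% saccharose block: IgG-Fc at 1 μg/ml, serum at 1:10,000.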

For test [1], the system named is immunoglobulins in human plasma. Briefly: Cellulose-immobilized 13-mer peptide variants incubated with human plasma, anti-human IgG-AP detection. The note with it: human plasma as sample, diluted 1:10,000 in blocking buffer, 3 h room temperature. Summed up: as §1
The test system of the next test is serum albumin. Briefly: Cellulose-immobilized 13-mer peptide variants incubated with serum albumin (negative control), anti-human IgG-AP detection. The note with it: blocking buffer without addition, 3 h room temperature. Summed up:
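Read-out was colorimetric NBT/BCIP staining (developing buffer pH 9.5) after alkaline phosphatase-conjugated anti-human IgG at 1.2 μg/ml. Before this, the immobilized peptides had been incubated 3 h at room temperature with 1 μg/ml IgG-Fc, 1:10,000 diluted serum, or albumin-containing blocking buffer without addition.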

Bridge positions count the residues as written; N and C are the ends. Square brackets hold non-standard residues; d marks the D form. Ends that are not written are not given here. cellulose = not defined here; βAla = NCCC(=O)O

On to “07W: cellulose-bound 13-mer variant DCAWHLWELVWCT-(βA)(βA) (DCAWHLWELVWCT-{βAla-βAla-cellulose}; disulfide 2-12 (inferred); not fully specified (N-terminus); printed as DCAWHLWELVWCT-(βA)(βA); reading uncertain)”, for which the “Result for incubation with human IgG-Fc (immunoglobulin binding detection)” value (from here on “Result for incubation with human IgG-Fc”) in the test on human IgG-Fc came to 0. Also, the “Result for incubation with human plasma (immunoglobulin binding detection)” value (from here on “Result for incubation with human plasma”) in test [1] is 0. The “Result for incubation with serum albumin (immunoglobulin binding detection)” value (from here on “Result for incubation with serum albumin”) in the test with serum albumin was determined as 0.

Regarding “01E: cellulose-bound 13-mer variant ECAWHLGELVWCT-(βA)(βA) (ECAWHLGELVWCT-{βAla-βAla-cellulose}; disulfide 2-12 (inferred); reading uncertain; also: printed as ECAWHLGELVWCT-(βA)(βA))”, the “Result for incubation with human IgG-Fc” value in the test on human IgG-Fc is recorded as “+”. For the same substance, the “Result for incubation with human plasma” value in test [1] is “+”. Moreover, the “Result for incubation with serum albumin” value in the test on serum albumin was determined as 0.

For “10K: cellulose-bound 13-mer variant DCAWHLGELKWCT-(βA)(βA) (DCAWHLGELKWCT-{βAla-βAla-cellulose}; disulfide 2-12 (inferred); reading uncertain; also: printed as DCAWHLGELKWCT-(βA)(βA))”, the “Result for incubation with human IgG-Fc” value in the test on human IgG-Fc came to 0. Moreover, the “Result for incubation with human plasma” value in test [1] was 0. The “Result for incubation with serum albumin” value with serum albumin was determined as 0.

With “06V: cellulose-bound 13-mer variant DCAWHVGELVWCT-(βA)(βA) (DCAWHVGELVWCT-{βAla-βAla-cellulose}; disulfide 2-12 (inferred); not fully specified (N-terminus); printed as DCAWHVGELVWCT-(βA)(βA); reading uncertain)”, in the test on human IgG-Fc, the “Result for incubation with human IgG-Fc” value came out at 0. In addition, in test [1], the “Result for incubation with human plasma” value stood at 0. For the same substance, the “Result for incubation with serum albumin” value in the test with serum albumin is recorded as 0.

In the case of “02R: cellulose-bound 13-mer variant DRAWHLGELVWCT-(βA)(βA) (DRAWHLGELVWCT[βAla][βAla]; not fully specified; printed as DRAWHLGELVWCT-(βA)(βA); also: cellulose-bound)”, in the test on human IgG-Fc, the “Result for incubation with human IgG-Fc” value was 0. Further, in test [1], the “Result for incubation with human plasma” value is 0. The “Result for incubation with serum albumin” value with serum albumin came out at 0.

“02S: cellulose-bound 13-mer variant DSAWHLGELVWCT-(βA)(βA) (DSAWHLGELVWCT[βAla][βAla]; not fully specified; printed as DSAWHLGELVWCT-(βA)(βA); also: cellulose-bound)”: in the test with human IgG-Fc, the “Result for incubation with human IgG-Fc” value is 0. In addition, the “Result for incubation with human plasma” value in test [1] stood at 0. Further, the “Result for incubation with serum albumin” value with serum albumin is 0.

For “01C: cellulose-bound 13-mer variant CCAWHLGELVWCT-(βA)(βA) (CCAWHLGELVWCT[βAla][βAla]; cysteine pairing not given here; also: bound to cellulose support)”, in the test on human IgG-Fc, the “Result for incubation with human IgG-Fc” value stood at 0. Further, the “Result for incubation with human plasma” value in test [1] is listed as 0. The “Result for incubation with serum albumin” value with serum albumin was 0.

For “08L: cellulose-bound 13-mer variant DCAWHLGLLVWCT-(βA)(βA) (DCAWHLGLLVWCT-{βAla-βAla-cellulose}; disulfide 2-12 (inferred); not fully specified (N-terminus); printed as DCAWHLGLLVWCT-(βA)(βA); reading uncertain)”, the “Result for incubation with human IgG-Fc” value with human IgG-Fc worked out at 0. In test [1], the “Result for incubation with human plasma” value is reported as 0. Besides, the “Result for incubation with serum albumin” value in the test with serum albumin is reported as 0.

Consider “01T: cellulose-bound 13-mer variant TCAWHLGELVWCT-(βA)(βA) (TCAWHLGELVWCT-{βAla-βAla-cellulose}; disulfide 2-12 (inferred); reading uncertain; also: printed as TCAWHLGELVWCT-(βA)(βA))”, for which the “Result for incubation with human IgG-Fc” value in the test on human IgG-Fc is listed as 0. Besides, the “Result for incubation with human plasma” value in test [1] was found to be 0. Further, the “Result for incubation with serum albumin” value with serum albumin was determined as 0.

Turning to “03H: cellulose-bound 13-mer variant DCHWHLGELVWCT-(βA)(βA) (DCHWHLGELVWCT-{βAla-βAla-cellulose}; disulfide 2-12 (inferred); reading uncertain; also: printed as DCHWHLGELVWCT-(βA)(βA))”, in the test on human IgG-Fc, the “Result for incubation with human IgG-Fc” value worked out at 0. Also, the “Result for incubation with human plasma” value in test [1] came to 0. Also, in the test with serum albumin, the “Result for incubation with serum albumin” value is 0.

Take “01W: cellulose-bound 13-mer variant WCAWHLGELVWCT-(βA)(βA) (WCAWHLGELVWCT-{βAla-βAla-cellulose}; disulfide 2-12 (inferred); reading uncertain; also: printed as WCAWHLGELVWCT-(βA)(βA))”: the “Result for incubation with human IgG-Fc” value in the test on human IgG-Fc is reported as 0. In addition, the “Result for incubation with human plasma” value in test [1] was found to be 0. In the test with serum albumin, the “Result for incubation with serum albumin” value is on record as 0.

With “10Q: cellulose-bound 13-mer variant DCAWHLGELQWCT-(βA)(βA) (DCAWHLGELQWCT-{βAla-βAla-cellulose}; disulfide 2-12 (inferred); reading uncertain; also: printed as DCAWHLGELQWCT-(βA)(βA))”, the “Result for incubation with human IgG-Fc” value in the test on human IgG-Fc was found to be 0. For the same substance, the “Result for incubation with human plasma” value in test [1] stood at 0. Moreover, the “Result for incubation with serum albumin” value with serum albumin is 0.

For the substance “06C: cellulose-bound 13-mer variant DCAWHCGELVWCT-(βA)(βA) (DCAWHCGELVWCT[βAla][βAla]; not fully specified (N-terminus); printed as DCAWHCGELVWCT-(βA)(βA); cysteine pairing not given here; also: cellulose-bound)”, the “Result for incubation with human IgG-Fc” value in the test on human IgG-Fc was 0. For the same substance, the “Result for incubation with human plasma” value in test [1] was 0. In the test on serum albumin, the “Result for incubation with serum albumin” value was determined as 0.

For the substance “08W: cellulose-bound 13-mer variant DCAWHLGWLVWCT-(βA)(βA) (DCAWHLGWLVWCT-{βAla-βAla-cellulose}; disulfide 2-12 (inferred); reading uncertain; also: printed as DCAWHLGWLVWCT-(βA)(βA))”, the “Result for incubation with human IgG-Fc” value in the test with human IgG-Fc was found to be 0. In addition, in test [1], the “Result for incubation with human plasma” value is 0. The “Result for incubation with serum albumin” value in the test on serum albumin was found to be 0.

“09M: cellulose-bound 13-mer variant DCAWHLGEMVWCT-(βA)(βA) (DCAWHLGEMVWCT-{βAla-βAla-cellulose}; disulfide 2-12 (inferred); reading uncertain; also: printed as DCAWHLGEMVWCT-(βA)(βA))”: the “Result for incubation with human IgG-Fc” value with human IgG-Fc is on record as “+”. Further, in test [1], the “Result for incubation with human plasma” value is recorded as 0. The “Result for incubation with serum albumin” value in the test on serum albumin was 0.

For “08S: cellulose-bound 13-mer variant DCAWHLGSLVWCT-(βA)(βA) (DCAWHLGSLVWCT-{βAla-βAla-cellulose}; disulfide 2-12 (inferred); reading uncertain; also: printed as DCAWHLGSLVWCT-(βA)(βA))”, the “Result for incubation with human IgG-Fc” value with human IgG-Fc is listed as “+”. Further, the “Result for incubation with human plasma” value in test [1] is 0. For the same substance, the “Result for incubation with serum albumin” value with serum albumin came to 0.

“04V: cellulose-bound 13-mer variant DCAVHLGELVWCT-(βA)(βA) (disulfide 2-12 (inferred); not fully specified (N-terminus, C-terminus); printed as DCAVHLGELVWCT-(βA)(βA); also: cellulose-bound)”: in the test on human IgG-Fc, the “Result for incubation with human IgG-Fc” value is reported as “+”. For the same substance, the “Result for incubation with human plasma” value in test [1] is reported as “+”. Moreover, the “Result for incubation with serum albumin” value in the test with serum albumin was 0.

With “03R: cellulose-bound 13-mer variant DCRWHLGELVWCT-(βA)(βA) (DCRWHLGELVWCT-{βAla-βAla-cellulose}; disulfide 2-12 (inferred); reading uncertain; also: printed as DCRWHLGELVWCT-(βA)(βA))”, the “Result for incubation with human IgG-Fc” value with human IgG-Fc is listed as 0. In test [1], the “Result for incubation with human plasma” value worked out at 0. Further, the “Result for incubation with serum albumin” value with serum albumin came out at 0.

With “12F: cellulose-bound 13-mer variant DCAWHLGELVWFT-(βA)(βA) (DCAWHLGELVWFT-{βAla-βAla-cellulose}; not fully specified; printed as DCAWHLGELVWFT-(βA)(βA); reading uncertain)”, in the test with human IgG-Fc, the “Result for incubation with human IgG-Fc” value stood at 0. In addition, the “Result for incubation with human plasma” value in test [1] came out at 0. For the same substance, the “Result for incubation with serum albumin” value with serum albumin was 0.
